Test results as given in US20190030046A1, “USE OF PURE COMPOUNDS EXTRACTED FROM ANTRODIA CAMPHORATA” (priority 2016, published 2019).

Experiments:
membrane GLUT4 = assay: Membrane GLUT4 protein expression in C2C12 myotube cells (Western blot); type: cell-based; conditions: 1, 5, 10, and 25 μg/mL, 25 min
Method: In the present invention, C2C12 skeletal myoblasts (ATCC, CRL-1772) were maintained in growth media consisting of Dulbecco's modified Eagle's medium (DMEM) (Gibco BRL) and supplemented with 10% Fetal Bovine Serum (FBS) (Hyclone) and 100 U/mL penicillin/100 μg/mL streptomycin (Gibco BRL), and split 1:4 using 0.05% trypsin when 80% confluent. Myoblasts were diluted and placed in a 9 cm-diameter dish. Cells were cultured to achieve 80%-90% confluency and then the growth media was changed as 2% FBS/DMEM every 24 h for 5-7 days.
In experiments for determining GLUT4 and p-Akt(Ser473)/t-Akt proteins in tubes, differentiated C2C12 cells were serum-starved in DMEM/BSA for 2 h at 37° C. prior to incubation with MeOH crude extract (at 20, 100, 200, and 500 μg/mL), test compounds (at 1, 5, 10, and 25 μg/mL), or vehicle for 25 min, or 100 nM insulin for 25 min.
The cultures obtained by cell culture above were centrifuged, and the resulting pellet was resuspended in a homogenization buffer. The forgoing steps were performed with a filtration membrane. Protein concentrations were measured using a BCA assay (Pierce). Equal amounts of protein were diluted four times in SDS sample buffer, and subjected to SDS PAGE and Western blotting with antibodies specific for Akt, p-Akt Ser^473, and GLUT4. Density blotting analysis was performed using Alpha Easy FC software.

[1] = HFD-induced diabetic mice: absolute tissue weight, body weight, food intake; type: in vivo, C57BL/6J mice; conditions: 4 weeks; for Absolute tissue weight: Visceral fat: EWAT plus RWAT
Text: (§1) The difference indicates the daily food intake.

G6-Pase = assay: Semiquantitative RT-PCR in liver tissue: G6-Pase; type: in vivo, C57BL/6J mice; conditions: vs HF, 4 weeks
Method: as §1
(§2) Total RNA from liver tissue was isolated with a Trizol Reagent (Molecular Research Center, Inc., Cincinnati, Ohio, USA) according to the manufacturer's instructions. The integrity of the extracted total RNA was examined by 2% agarose gel electrophoresis, and the RNA concentration was determined by […] ultraviolet (UV) light absorbency at 260 nm and 280 nm (Spectrophotometer U-2800A, Hitachi). The total RNA (1 μg) was reverse transcribed to cDNA, and 5 μL Moloney murine leukemia virus reverse transcriptase (TEpicentre, Madison, Wis., USA). The PCR was performed in a final 25 μL containing 1 U Blend Taq-Plus (TOYOBO, Japan), 10 μL of the RT cDNA product, 10 μM of each forward (F) and reverse (R) primer, 75 mM Tris-HCL (pH 8.3) containing 1 mg/L Tween 20 (pH 8.3, also known as polyoxyethylene sorbitan monolaurate), 2.5 mM dNTP (deoxy-ribonucleoside triphosphate), and 2 mM MgCl2 (magnesium chloride). The PCR products were analyzed by 2% agarose gel and stained with ethidium bromide.

SREBP-1c = assay: Semiquantitative RT-PCR in liver tissue: SREBP-1c; type: in vivo, C57BL/6J mice; conditions: vs HF, 4 weeks
Method: as §1, §2

GPAT = assay: Semiquantitative RT-PCR in liver tissue: GPAT; type: in vivo, C57BL/6J mice; conditions: vs HF, 4 weeks
Method: as §1, §2

UCP3 = assay: Semiquantitative RT-PCR in liver tissue: UCP3; type: in vivo, C57BL/6J mice; conditions: vs HF, 4 weeks
Method: as §1, §2

PPARα = assay: Western blot of PPARα protein in liver of HFD mice; conditions: compared to HF, 4 weeks
PPARγ = assay: Western blot of PPARγ protein in liver and adipose tissue of HFD mice; conditions: compared to HF, 4 weeks

C=C(CC[C@@H](C(=O)O)[C@H]1CC[C@@]2(C)C3=CC[C@H]4C(C)(C)[C@@H](O)CC[C@]4(C)C3=CC[C@]12C)C(C)C [TT, dehydroeburicoic acid]
protein expression level of membrane GLUT4 (membrane GLUT4): increase | Absolute tissue weight: Visceral fat ([1]; HF+TT1, 10 mg/kg/day oral): 1142.9 mg | Absolute tissue weight: Visceral fat ([1]; HF+TT2, 20 mg/kg/day oral): 1116.2 mg | Absolute tissue weight: Visceral fat ([1]; HF+TT3, 40 mg/kg/day oral): 979.3 mg | Absolute tissue weight: Brown adipose tissue (BAT) ([1]; HF+TT1, 10 mg/kg/day oral): 228.6 mg | Absolute tissue weight: Epididymal white adipose tissue (EWAT) ([1]; HF+TT1, 10 mg/kg/day oral): 798.9 mg | Absolute tissue weight: Liver ([1]; HF+TT1, 10 mg/kg/day oral): 848.3 mg | Absolute tissue weight: Mesenteric white adipose tissue (MWAT) ([1]; HF+TT1, 10 mg/kg/day oral): 361.3 mg | Absolute tissue weight: Retroperitoneal white adipose tissue (RWAT) ([1]; HF+TT1, 10 mg/kg/day oral): 343.9 mg | Absolute tissue weight: Spleen ([1]; HF+TT1, 10 mg/kg/day oral): 77.7 mg | Final body weight ([1]; HF+TT1, 10 mg/kg/day oral): 27.52 g | Food intake ([1]; HF+TT1, 10 mg/kg/day oral): 2.21 g/day/mouse | Weight gain ([1]; HF+TT1, 10 mg/kg/day oral): 2.24 g | Absolute tissue weight: Brown adipose tissue (BAT) ([1]; HF+TT2, 20 mg/kg/day oral): 197.3 mg | Absolute tissue weight: Epididymal white adipose tissue (EWAT) ([1]; HF+TT2, 20 mg/kg/day oral): 784.3 mg | Absolute tissue weight: Liver ([1]; HF+TT2, 20 mg/kg/day oral): 841.8 mg | Absolute tissue weight: Mesenteric white adipose tissue (MWAT) ([1]; HF+TT2, 20 mg/kg/day oral): 340.9 mg | Absolute tissue weight: Retroperitoneal white adipose tissue (RWAT) ([1]; HF+TT2, 20 mg/kg/day oral): 331.9 mg | Absolute tissue weight: Spleen ([1]; HF+TT2, 20 mg/kg/day oral): 81.5 mg | Final body weight ([1]; HF+TT2, 20 mg/kg/day oral): 26.47 g | Food intake ([1]; HF+TT2, 20 mg/kg/day oral): 2.16 g/day/mouse | Weight gain ([1]; HF+TT2, 20 mg/kg/day oral): 0.89 g | Absolute tissue weight: Brown adipose tissue (BAT) ([1]; HF+TT3, 40 mg/kg/day oral): 198.1 mg | Absolute tissue weight: Epididymal white adipose tissue (EWAT) ([1]; HF+TT3, 40 mg/kg/day oral): 667.8 mg | Absolute tissue weight: Liver ([1]; HF+TT3, 40 mg/kg/day oral): 802.8 mg | Absolute tissue weight: Mesenteric white adipose tissue (MWAT) ([1]; HF+TT3, 40 mg/kg/day oral): 304.6 mg | Absolute tissue weight: Retroperitoneal white adipose tissue (RWAT) ([1]; HF+TT3, 40 mg/kg/day oral): 311.4 mg | Absolute tissue weight: Spleen ([1]; HF+TT3, 40 mg/kg/day oral): 82.3 mg | Final body weight ([1]; HF+TT3, 40 mg/kg/day oral): 26.53 g | Food intake ([1]; HF+TT3, 40 mg/kg/day oral): 2.07 g/day/mouse | Weight gain ([1]; HF+TT3, 40 mg/kg/day oral): 0.83 g | G6-Pase mRNA expression level in liver (G6-Pase; HF+TT1, 10 mg/kg/day oral): decreased | G6-Pase mRNA expression level in liver (G6-Pase; HF+TT2, 20 mg/kg/day oral): decreased | G6-Pase mRNA expression level in liver (G6-Pase; HF+TT3, 40 mg/kg/day oral): decreased | SREBP-1c mRNA expression level in liver (SREBP-1c; HF+TT1, 10 mg/kg/day oral): decreased | SREBP-1c mRNA expression level in liver (SREBP-1c; HF+TT2, 20 mg/kg/day oral): decreased | SREBP-1c mRNA expression level in liver (SREBP-1c; HF+TT3, 40 mg/kg/day oral): decreased | GPAT mRNA expression level in liver (GPAT; HF+TT1, 10 mg/kg/day oral): decreased | GPAT mRNA expression level in liver (GPAT; HF+TT2, 20 mg/kg/day oral): decreased | GPAT mRNA expression level in liver (GPAT; HF+TT3, 40 mg/kg/day oral): decreased | UCP3 mRNA expression level in liver (UCP3; HF+TT2, 20 mg/kg/day oral): increased | UCP3 mRNA expression level in liver (UCP3; HF+TT3, 40 mg/kg/day oral): increased | PPAR protein expression level in liver (PPARα; HF+TT1, 10 mg/kg/day oral): significantly increased | PPAR protein expression level in liver (PPARα; HF+TT2, 20 mg/kg/day oral): significantly increased | PPAR protein expression level in liver (PPARα; HF+TT3, 40 mg/kg/day oral): significantly increased | PPARγ protein expression level in adipose tissue (PPARγ; HF+TT1, 10 mg/kg/day oral): significantly decreased | PPARγ protein expression level in liver (PPARγ; HF+TT1, 10 mg/kg/day oral): significantly decreased | PPARγ protein expression level in adipose tissue (PPARγ; HF+TT2, 20 mg/kg/day oral): significantly decreased | PPARγ protein expression level in liver (PPARγ; HF+TT2, 20 mg/kg/day oral): significantly decreased | PPARγ protein expression level in adipose tissue (PPARγ; HF+TT3, 40 mg/kg/day oral): significantly decreased | PPARγ protein expression level in liver (PPARγ; HF+TT3, 40 mg/kg/day oral): significantly decreased
